According to article PMC12066480, “Optimization of neuron-specific interfering peptides targeting GABAB receptor downregulation for proteolytic stability for conferring neuroprotection in a mouse model of cerebral ischemia” (Frontiers in Pharmacology, 2025):
Ends that are not written are not given here.

What was measured:
[1] = system: cultured neuron/glia cells
[2] = system: cultured neurons (neuron/glia cultures)
[3] = system: cultured neurons (neuron/glia cultures); assay: Peptide uptake into individual cultured neurons, colocalization immunocytochemistry; settings: 1 h
[4] = Proteolytic stability in blood serum, Western blot; settings: peptide stock 1 μg/μL added 1:5, 37°C, 3 independent experiments and one technical replicate (Figures 3A-C)
Method: For testing the resistance of the peptides to proteolytic degradation blood serum was prepared from blood collected from naïve mice decapitated under deep isoflurane anesthesia. The blood samples were allowed to clot at RT for 10–15 min, followed by centrifugation at 2000 g for 10 min and 4°C to separate the serum. The serum was stored at −80°C until used.
For testing, a peptide stock solution of 1 μg/μL was added directly to the serum in a ratio of 1:5 and incubated at 37°C for different times. After incubation, the mixture was diluted 1:4 with PBS and the samples were incubated with 2x Laemmli sample buffer (Bio-Rad) for 1 h at 37°C. The samples were subjected to tricine-sodium dodecyl sulfate-polyacrylamide gel electrophoresis (SDS-PAGE) using 1 mm thick 16% gels modified for the detection of small peptides as described by ([Too et al., 1994]).
Proteins were transferred onto 0.1 μm nitrocellulose membranes, previously coated with a solution of 0.5% gelatine ([Too et al., 1994]), in a semi-dry transfer cell (Trans-Blot SD; Bio-Rad) for 70 min at 10 V. After transfer, the blots were immediately incubated in 4% PFA for 5 min, thoroughly washed and blocked for 1 h in PBS containing 5% non-fat dry milk at room temperature. Thereafter, the blots were incubated with Alexa Fluor 750-streptavidin overnight at 4°C in PBS containing 5% non-fat dry milk. The blots were washed three times for 10 min with TBST and immunoreactivity was detected by the ODYSSEY CLx scanner (LI-COR Biosciences). For quantification of signal intensity, the images were analyzed with the Image Studio software (LI-COR Biosciences).

| Sequence | uptake of truncated RVG peptides (attached to 9R) into cultured neurons, screening [1] | colocalization with GABAB receptors and neuronal marker NeuN [2] | degradation after incubation for up to 72 h in mouse serum [4] | other results |
| --- | --- | --- | --- | --- |
| FTNSRGKRRRRRRRRRR [Figure 2A peptide 5] | retained neuron-specific uptake | selectively taken up by neurons |  |  |
| GTPCDIFTRRRRRRRRR [Figure 2A peptide 4] | retained neuron-specific uptake | selectively taken up by neurons |  | peptide uptake into individual neurons by immunocytochemistry ([3]; 10 μg/mL, normalized to peptide 4, 50 neurons per sequence, two independent experiments (Figure 2B)): considerably more efficiently taken up by neurons than the other peptides tested; cell-type selectivity of uptake (NeuN vs GFAP colocalization) ([3]; NeuN, GFAP, DAPI, 3 independent determinations in triplicates (Figure 2C)): lack of uptake by astrocytes |
| GTPCDIFTRRRRRRRRRFQFTQNQKKEDSKTSTSV [PP2A-Pep] |  |  | did not result in an appreciable degradation |  |
| GTPCDIFTRRRRRRRRRLQDTPEKTTYIK [CHOP-Pep] |  |  | did not result in an appreciable degradation |  |
| GTPCDIFTRRRRRRRRRSETQDTMKTGSSTNNNEEEKSR [CaMKII-Pep] |  |  | did not result in an appreciable degradation |  |
| YTIWMPENPRPGTPCDIFTNSRGKRASNGGGGRRRRRRRRR [Figure 1A peptide 12] |  |  |  | uptake into cultured neuron/glia cells (Figure 1A) [1]: did not affect its uptake into the cultured cells |
| YTIWMPENRRRRRRRRR [Figure 2A peptide 2] | retained neuron-specific uptake | selectively taken up by neurons |  |  |
